Experimental findings from patent publication EP0354453A2, “Antimicrobial agent for animals” (priority 1988, dated 1990) are described below.

In brackets after ≈: the same amount, converted by molar mass.

Data set [1] can be described thus: Acute toxicity test, intravenous injection. In kind it is in vivo. As for the experimental part: Representative test compounds, Compounds (2) and (3), were intravenously injected to mice. No fatality occurred at a dose of 200 mg/kg (10 mice/group), for Compound (2), and a dose of 200 mg/kg (6 mice/group), for Compound (3). From the results, the LD₅₀ values of the compounds are considered to be greater than 200 mg/kg.

In another data set the test system is Mycoplasma gallisepticum. Kind of data set: Effect of oral administration on chicken inoculated with Mycoplasma gallisepticum. In kind it is in vivo. The following applies: for Chickens developing disease in air sac (naked eye observation) / No. of dead chickens: 5 tested chickens. As for the experimental part: Mycoplasma gallisepticum cells collected from chickens having respiratory Mycoplasma infection were cultured for 3 days in a Frey liquid media for Mycoplasma. 0.2 ml of this culture broth was injected into the trachea of chickens of an average body weight of 80 g using a 1 ml disposable injection needle. Beginning from the next day following the inoculation, feeds to which Compound (1) had been added in the amount of 100 ppm, 75 ppm, or 50 ppm were freely given to the chickens for 5 days. Following the administration of Compound (1) the chickens were given feed containing no drug for a further 5 days. The surviving chickens were sacrificed and dissected. After examination of the degree of disease in the air sac, Mycoplasma gallisepticum in the infraorbital sinus, trachea, lung, and air sac were determined. […] TABLE 6 […]

Data set [2] deals with Mycoplasma gallisepticum Strain T-2. The data set is described as follows: in vitro antimicrobial activity (MIC) in Frey liquid medium. Format: cell-based. The following applies: Mycoplasmoides gallisepticum; Mycoplasma gallisepticum Strain T-2, from chicken; Frey liquid medium, 37°C, 3-5 days; read-out: MIC. As for the experimental part: (§1) Various test strains of Mycoplasma gallisepticum derived from chicken were cultured in a Frey liquid medium for Mycoplasma for 3 days. The culture broth containing about 10⁸/ml cells was diluted to a volume of 100 times. The diluted broth was inoculated into Frey liquid media for Mycoplasma to which the compounds of this invention were added at prescribed concentrations. The cells were incubated at 37°C for 3-5 days while daily observing the color of the media. Among the culture broths maintaining yellow color at the time when the control to which no test compound was added turned red, the concentration of the broth having the minimum concentration was taken as the MIC of the compound.

Data set [3] deals with Mycoplasma gallisepticum Strain 2012. The data set is described as above. In kind it is cell-based. The following applies: Mycoplasmoides gallisepticum, STRAIN2012; Mycoplasma gallisepticum Strain 2012, from chicken; Frey liquid medium, 37°C, 3-5 days; read-out: MIC. As for the experimental part:
as §1

In data set [4] the test system is Mycoplasma gallisepticum Strain T-7. Described as above. Format: cell-based. Particulars: Mycoplasmoides gallisepticum, Mycoplasma gallisepticum Strain T-7, from chicken, 37°C, 3-5 days. As for the experimental part: as §1
For data set [5], the system named is Mycoplasma gallisepticum Strain DP-1047. Described as above. Format: cell-based. The following applies: Mycoplasmoides gallisepticum; Mycoplasma gallisepticum Strain DP-1047, from chicken; Frey liquid medium, 37°C, 3-5 days; read-out: MIC. The procedure: as §1
Data set [6] concerns Mycoplasma gallisepticum Strain 2004. The description is as above. In kind it is cell-based. Particulars: Mycoplasmoides gallisepticum, STRAIN2004; Mycoplasma gallisepticum Strain 2004, from chicken; Frey liquid medium, 37°C, 3-5 days; read-out: MIC. As for the experimental part:
as §1

Data set [7] deals with Salmonella typhimurium 103. Kind of data set: in vitro antimicrobial activity (MIC), agar dilution, Part 2. Format: cell-based. Particulars: Salmonella enterica; Salmonella typhimurium 103, Chicken; read-out: MIC. The procedure: (§2) Test microorganisms listed in Table 2 were cultured overnight in heart infusion nutrient broth (produced by Eiken Chemical Co., Ltd.). Culture broth containing about 10⁸/ml cells was diluted to a volume of 100 times. An aliquot (about 0.05 ml) of the diluted broth was inoculated onto a Mueller Hinton agar plate (produced by Eiken Chemical Co., Ltd.) to which Compound No. 1 was added in a prescribed concentration. […]
(§3) MIC of Compounds (1)-(8) against various pathogenic bacteria derived from animals was determined in the same manner as in Example 1.
Background: In agar dilution, organisms are placed on agar that contains the substance at set levels.

The test system of data set [8] is Salmonella typhimurium 569. Described as above. In kind it is cell-based. Particulars: Salmonella enterica, TYPHIMURIUM, Salmonella typhimurium 569, Pig; read-out: MIC. As for the experimental part: as §2, §3
The subject of a further data set is Escherichia coli 139. The description is as above. In kind it is cell-based. The following applies: Escherichia coli 139, Cow; read-out: MIC. The procedure: as §2, §3
Another data set deals with Escherichia coli 881. The description is as above. The following applies: Escherichia coli, 881, Escherichia coli 881, Pig; read-out: MIC. In kind it is cell-based. The procedure: as §2, §3
Data set [9] has as its system Bordetella bronchiaseptica OKM-1. The data set is described as above. Particulars: Bordetella, OKM1, Bordetella bronchiaseptica OKM-1, Pig; read-out: MIC. Format: cell-based. The procedure: as §2, §3
Data set [10] relates to Staphylococcus aureus Yamaguchi 6. The data set is described as above. In kind it is cell-based. Particulars: Staphylococcus aureus Yamaguchi 6, Chicken; read-out: MIC. As for the experimental part:
as §2, §3

Data set [11] concerns Pasteurella multocida DB-12-1. The data set is described as above. In kind it is cell-based. The following applies: DB121; Pasteurella multocida DB-12-1, Pig; read-out: MIC. As for the experimental part:
as §2, §3

The subject of the next data set is Escherichia coli S6W. Described as above. In kind it is cell-based. The following applies: Escherichia coli, S6W, Escherichia coli S6W, Chicken; read-out: MIC. As for the experimental part:
as §2, §3

In general, LD50 refers to the dose expected to kill half of the subjects tested. What is called MIC is the lowest concentration found to suppress growth. As to `CCN1CCN(c2c(F)cc3c(=O)c(C(=O)O)cn4c3c2OCC4C)CC1` (racemic) [Compound (2), 3(RS)-9-fluoro-2,3-dihydro-3-methyl-10-(4-ethyl-1-piperazinyl)-7-oxo-7H-pyrido[1,2,3-de] [1,4]benzoxazine-6-carboxylic acid], in data set [1] (mice, intravenously injected, dose of 200 mg/kg), the fatality entry is “No fatality”. Besides, the LD50 in data set [1] (mouse, in vivo, iv) is greater than 200 mg/kg. Besides, the “Mycoplasma gallisepticum collected in Air sac” value in the data set on Mycoplasma gallisepticum (50 ppm in feed for 5 days) is on record as 2.08 Logarithmic number of collected cells per 1 g of tissue; with Mycoplasma gallisepticum (75 ppm in feed for 5 days), 0 Logarithmic number of collected cells per 1 g of tissue; with Mycoplasma gallisepticum (100 ppm in feed for 5 days), 0 Logarithmic number of collected cells per 1 g of tissue. Further, the “Mycoplasma gallisepticum collected in Infraorbital sinus” value in the data set on Mycoplasma gallisepticum (50 ppm in feed for 5 days), in the data set on Mycoplasma gallisepticum (75 ppm in feed for 5 days) and in the data set on Mycoplasma gallisepticum (100 ppm in feed for 5 days) was 0/5 throughout. Further, the entries for the “Mycoplasma gallisepticum collected in Lung” value in the data set on Mycoplasma gallisepticum (50 ppm in feed for 5 days), with Mycoplasma gallisepticum (75 ppm in feed for 5 days) and in the data set on Mycoplasma gallisepticum (100 ppm in feed for 5 days) were 2.43 Logarithmic number of collected cells per 1 g of tissue, 0 Logarithmic number of collected cells per 1 g of tissue and 0 Logarithmic number of collected cells per 1 g of tissue, respectively. Further, the “Mycoplasma gallisepticum collected in Trachea” value with Mycoplasma gallisepticum (50 ppm in feed for 5 days) is on record as 2.96 Logarithmic number of collected cells per 1 g of tissue; in the data set on Mycoplasma gallisepticum (75 ppm in feed for 5 days), 0 Logarithmic number of collected cells per 1 g of tissue; in the data set with Mycoplasma gallisepticum (100 ppm in feed for 5 days), 0 Logarithmic number of collected cells per 1 g of tissue. In addition, the “Chickens developing disease in air sac (naked eye observation)” value in the data set on Mycoplasma gallisepticum (50 ppm in feed for 5 days), in the data set on Mycoplasma gallisepticum (75 ppm in feed for 5 days) and in the data set on Mycoplasma gallisepticum (100 ppm in feed for 5 days) was 0 each time. For the same molecule, the “No. of dead chickens” value in the data set on Mycoplasma gallisepticum (50 ppm in feed for 5 days), with Mycoplasma gallisepticum (75 ppm in feed for 5 days) and with Mycoplasma gallisepticum (100 ppm in feed for 5 days) was 0 each time. Moreover, the MIC in data set [2] is 0.1 µg/mL (≈ 0.266 µM); in [3] it was 0.025 µg/mL (≈ 0.0666 µM); in data set [4], 0.1 µg/mL (≈ 0.266 µM); in data set [5] it was 0.1 µg/mL (≈ 0.266 µM); in data set [6] it was 0.025 µg/mL (≈ 0.0666 µM); in data set [7], 0.2 µg/mL (≈ 0.533 µM). Also, the minimal inhibitory concentration (MIC) is 0.1 µg/mL (≈ 0.266 µM) in [8]; 0.2 µg/mL (≈ 0.533 µM) in the data set on Escherichia coli 139; 0.1 µg/mL (≈ 0.266 µM) in the data set on Escherichia coli 881; 0.2 µg/mL (≈ 0.533 µM) in data set [9]; 0.39 µg/mL (≈ 1.04 µM) in [10]; 0.05 µg/mL (≈ 0.133 µM) in data set [11]. For the same molecule, the MIC in the data set with Escherichia coli S6W was 0.1 µg/mL (≈ 0.266 µM).

Take `CCCN1CCN(c2c(F)cc3c(=O)c(C(=O)O)cn4c3c2OC[C@@H]4C)CC1` [Compound (7), 3S-9-fluoro-2,3-dihydro-3-methyl-10-(4-n-propyl-1-piperazinyl)-7-oxo-7H-pyrido[1,2,3-de] [1,4]benzoxazine-6-carboxylic acid]: the MIC in data set [7] came to 0.2 µg/mL (≈ 0.514 µM); in data set [8] it was 0.2 µg/mL (≈ 0.514 µM); in the data set on Escherichia coli 139 it was 0.2 µg/mL (≈ 0.514 µM); with Escherichia coli 881, 0.2 µg/mL (≈ 0.514 µM); in [9], 0.39 µg/mL (≈ 1 µM); in data set [10] it was 0.2 µg/mL (≈ 0.514 µM). Also, the MIC in the data set on Escherichia coli S6W is 0.2 µg/mL (≈ 0.514 µM).

Consider `CCN1CCN(c2c(F)cc3c(=O)c(C(=O)O)cn4c3c2OC[C@@H]4C)CC1` [(6), 3S-9-fluoro-2,3-dihydro-3-methyl-10-(4-ethyl-1-piperazinyl)-7-oxo-7H-pyrido[1,2,3-de] [1,4]benzoxazine-6-carboxylic acid], for which the MIC worked out at 0.1 µg/mL (≈ 0.266 µM) in [7]; 0.1 µg/mL (≈ 0.266 µM) in [8]; 0.1 µg/mL (≈ 0.266 µM) in the data set with Escherichia coli 139; 0.1 µg/mL (≈ 0.266 µM) with Escherichia coli 881; 0.2 µg/mL (≈ 0.533 µM) in data set [9]; 0.2 µg/mL (≈ 0.533 µM) in [10]. In addition, in the data set with Escherichia coli S6W, the MIC was 0.1 µg/mL (≈ 0.266 µM).

Regarding `CCCCN1CCN(c2c(F)cc3c(=O)c(C(=O)O)cn4c3c2OCC4C)CC1` (racemic) [Compound (5), 3(RS)-9-fluoro-2,3-dihydro-3-methyl-10-(4-n-butyl-1-piperazinyl)-7-oxo-7H-pyrido[1,2,3-de] [1,4]benzoxazine-6-carboxylic acid], the MIC in [2] amounted to 0.1 µg/mL (≈ 0.248 µM); in data set [3], 0.025 µg/mL (≈ 0.062 µM); in [4], 0.1 µg/mL (≈ 0.248 µM); in data set [5] it was 0.1 µg/mL (≈ 0.248 µM); in data set [6], 0.025 µg/mL (≈ 0.062 µM); in data set [7] it was 1.56 µg/mL (≈ 3.87 µM). Further, the minimal inhibitory concentration (MIC) in data set [8] is 0.78 µg/mL (≈ 1.93 µM); in the data set with Escherichia coli 139, 0.78 µg/mL (≈ 1.93 µM); in the data set on Escherichia coli 881, 0.78 µg/mL (≈ 1.93 µM); in data set [9], 0.78 µg/mL (≈ 1.93 µM); in data set [10], 0.78 µg/mL (≈ 1.93 µM); in data set [11] it was 0.1 µg/mL (≈ 0.248 µM). The MIC in the data set on Escherichia coli S6W came to 0.78 µg/mL (≈ 1.93 µM).
